Patent publication US11931335B2, “Enhancing autophagy or increasing longevity by administration of urolithins or precursors thereof” (Amazentis SA, priority 2012, dated 2024)

Legend:
[1] = test system: eat-2(ad465) mutant C. elegans; assay: Lifespan assay, eat-2 mutant C. elegans; type: in vivo
Description: (§1) Lifespan assays were performed with (A) wild-type (N2), (B) sir-2.1(ok434) mutant, (C) aak-2(ok524), (D) daf-16(mu86), (E) eat-2(ad465) and (F) daf-2(e1370) mutant strains of C. elegans maintained during their full life on plates supplemented with either 50 μM of urolithin A or with a control treatment and seeded with OP50 bacteria. Control plates without urolithin A contained an equivalent concentration of DMSO. Worm lifespan assays were performed at 20° C.
eat-2 encodes a protein involved in pharyngeal pumping.

[2] = test system: primary mouse hepatocytes; assay: Autophagy western blot in primary hepatocytes; type: cell-based; details: 16 hour
Description: Isolated primary hepatocytes were cultured in Medium 199 including 4.5 g/L glucose, 10% fetal calf serum, 0.1 mM NEAA, 10 mM HEPES and 50 μg/mL gentamicin. These cells were then treated with either 10 μM, 20 μM or 50 μM of urolithin A for a 16 hour period, after which cells were lysed and prepared for Western Blot analysis.
Protein expression levels were examined for autophagy related proteins LC3-I and II (Cell Signaling antibody #4108), p62 (Cell Signalling antibody #5114), AMPKα (Cell Signaling antibody #2603), and p-AMPKα(Cell Signaling antibody #2531). The housekeeping protein, HSP90 (BD Transduction Laboratories antibody #610418) level was measured as a loading control.

[3] = test system: aged C57BL/6J mice; assay: Locomotor activity by infrared detection in aged mice; type: in vivo, mouse; details: 50 mg/kg/day, 34 weeks, 12 hour dark period, FIG. 23
Description: Locomotor activity may be also assessed by measuring animal movements using infrared detection. To determine the effects of urolithin A on spontaneous locomotor activity in aged animals, 16-month-old C57BL/6J mice were treated with either a standard rodent diet or a diet containing urolithin A mixed with food to reach a dosing of 50 mg/kg/day delivered to mice. Following 34 weeks of treatment with urolithin A, mice were placed in a locomotor activity monitoring system, TSE Systems. Infrared transmitters and receivers are placed in the x, y, and z axis. Interruption of the infrared beams in the x, y axis by the passage of the mouse, allows for a measurement of the horizontal movement (ambulation). Interruption of the infrared beams in the z axis by the mouse, allows for the measurement of rearing behavior. Each beam interruption results in one count being recorded. Total counts were measured for each 30 minute period over a two day period. The total counts observed during the 12 hour dark period, which corresponds to the time of highest activity in mice, were summed for each animal.

[4] = test system: daf-2(e1370) mutant C. elegans; type: in vivo
Description: as §1
daf-2 encodes for the insulin-like growth factor 1 (IGF-1) receptor in C. elegans.

[5] = test system: daf-16(mu86) mutant C. elegans; assay: Lifespan assay, daf-16 mutant C. elegans; type: in vivo
Description: as §1
daf-16 encodes a FOXO transcription factor.

[6] = test system: mitochondria in muscle of C. elegans strain SJ4103; assay: Mitochondrial GFP reporter in muscle of C. elegans; type: in vivo; details: 50 μM from eggs, GFP after one day of adulthood; FIG. 7
Description: The worms were treated from eggs to the first day of adulthood. The strains used were the SJ4103 (zcIs14[myo-3::GFP(mit)]), which is a stable transgenic line expressing a mitochondrially localized green fluorescent protein (GFP) with a cleavable mitochondrial import signal peptide under the control of the specific body wall muscle promoter myo-3. GFP expression and quantification was carried out according to the protocol previously described. […] Fluorimetric assays were performed using a Victor X4 multilabel plate reader (Perkin-Elmer Life Science). Eighty worms were picked at random (20 worms per well of a black-walled 96-well plate), and each well was read four times and averaged.

[7] = test system: C. elegans wild-type Bristol N2; assay: Lifespan of wild-type C. elegans; type: in vivo; details: for Mean Life Extension (%): Genotype: N2, fed live E. coli (OP50); for median lifespan increased by: FIG. 5; for Lifespan extension compared to control (%): 50 μM UA vs 1% DMSO
Description: C. elegans strains were cultured at 20° C. on nematode growth media (NGM) agar plates seeded with E. coli strain OP50. Strain used was wild-type Bristol N2 provided by the Caenorhabditis Genetics Center (University of Minnesota). All Compounds were dissolved in DMSO. Animals were exposed to compounds from eggs on plates seeded with live OP50 bacteria. Control plates were prepared with the corresponding concentrations of DMSO (0.1%). For lifespan tests, worms were observed using a Nikon SMZ1500 stereomicroscope (Nikon, Melville, NY, USA). […] After 3 days (corresponding to day 0), newly developed 60 to 100 L4 worms were used per condition, scored and transferred to fresh plates every 3 days starting from day 1 (young adult worms). All lifespan experiments were performed at 20° C.
as §1

[8] = test system: mouse C2C12 myoblasts; assay: Autophagy western blot in C2C12 myoblasts; type: cell-based; details: 10 μM, 20 μM, and 50 μM, 16 hours
Description: C2C12 myoblast were cultured in Dulbecco's modified Eagle's medium (DMEM) including 4.5 g/L glucose, 20% fetal calf serum, and 50 μg/mL gentamicin. Urolithin A was dissolved in DMSO in a stock solution of […]. Cells were treated at final concentrations of urolithin A of 10 μM, 20 μM, and 50 μM for a period 16 hours. Control cells were treated with DMSO at an equivalent final concentration for the same period and served as the untreated control.
At the end of treatment, cells were lysed with RIPA buffer and applied to SDS-PAGE and analyzed by western blot. Protein expression levels were examined for autophagy-related proteins LC3-I and LC3-II (Cell Signaling antibody #4108), p62 (Cell Signaling antibody #5114), AMPKα (Cell Signaling antibody #2603), and p-AMPKα(Cell Signaling antibody #2531). The housekeeping protein, R-actin (Cell Signaling Antibody #4967) level was measured as a loading control.

[9] = test system: C. elegans strain DA2122 (LGG-1::GFP); assay: Autophagy induction, LGG-1::GFP dots in C. elegans; type: in vivo; details: 50 μM from eggs to second day of adulthood; FIGS. 9A-9B
Description: C. elegans strains were cultured at 20° C. on nematode growth media (NGM) agar plates seeded with OP50 bacteria and containing 50 μM urolithin A or a corresponding concentration of DMSO as a control. The worms were treated from eggs to the second day of the adulthood. The strains used were the DA2122 (adIs2122[lgg-1::GFP+rol-6(su1006)]), which is a transgenic line expressing the LGG-1 protein (homolog of LC3 in human) fused with the green fluorescent protein (GFP). For picture acquisition, worms were immobilized with tetramisole (Sigma) and mounted on 6% agarose pads on glass slides. Images were acquired using Zeiss LSM 700 upright confocal microscope (Carl Zeiss A G, Oberkochen, Germany) from the same part of C. elegans. For each condition multiple worms were observed and imaged with the same initial parameters. Image processing and quantification of autophagic events was performed with the Fiji software.

**Q.** Which “Median lifespan” value ([1]; 50 μM UA) does the source give for `O=c1oc2cc(O)ccc2c2ccc(O)cc12` [Urolithin A, urolithin A] here?
**A.** 37 days

**Q.** What about the “Lifespan extension compared to control (%)” value (from here on “Lifespan extension … (%)”) ([1]; 50 μM UA vs 1% DMSO) of the same compound?
**A.** +76.2%

**Q.** And the P62 protein levels ([2]; 10 μM, 20 μM or 50 μM)?
**A.** decrease

**Q.** And the “ratio of LC3-II to LC3-I” value ([2]; 10 μM, 20 μM or 50 μM, FIG. 15)?
**A.** dose-dependent effect and increase

**Q.** And the “ratio of p-AMPKα/AMPK-u vs control cells” value ([2]; 20 and […])?
**A.** above 10 fold

**Q.** What about the increase in ambulation [3] of the same compound?
**A.** 14%

**Q.** What about the increase in rearing [3] of the same compound?
**A.** 25%

**Q.** And the “Median lifespan” value ([4]; daf-2, 50 μM UA)?
**A.** 48 days

**Q.** And the “Lifespan extension … (%)” value ([4]; daf-2, 50 μM UA vs 1% DMSO)?
**A.** +14.2%

**Q.** What about the “activity of urolithin A on the extension of median lifespan” value ([4]; daf-2 mutant) of the same compound?
**A.** completely suppressed

**Q.** And the “Median lifespan” value ([5]; 50 μM UA)?
**A.** 23 days

**Q.** And the “Lifespan extension … (%)” value ([5]; 50 μM UA vs 1% DMSO)?
**A.** +43.7%

**Q.** And the “expression of the mitochondrial GFP reporter (myo-3 promoter)” value [6]?
**A.** striking increase in GFP expression

**Q.** And the “Mean Life Extension (%)” value ([7]; dose 10 μM)?
**A.** 27.7%

**Q.** What about the “Mean Life Extension (%)” value ([7]; dose 50 μM) of the same compound?
**A.** 75%

**Q.** And the “median lifespan increased by” value ([7]; concentration of 50 µM)?
**A.** 75%

**Q.** And the “effect on lifespan in C. elegans” value ([7]; concentration of 50 µM, exposed from eggs, FIG. 4)?
**A.** extended the lifespan

**Q.** What about the “median lifespan increased by” value ([7]; concentration of 10 M) of the same compound?
**A.** 27.7%

**Q.** And the “Median lifespan” value ([7]; wild-type (N2), 50 μM UA)?
**A.** 28 days

**Q.** What about the “Lifespan extension … (%)” value ([7]; wild-type (N2)) of the same compound?
**A.** 75%

**Q.** What about the “Lifespan extension … (%)” value ([7]; wild-type (N2), listed as UA) of the same compound?
**A.** +75%

**Q.** What about the “levels of p62” value [8] of the same compound?
**A.** decrease

**Q.** And the “ratio of pAMPKα/AMPKα” value [8]?
**A.** increasing several fold

**Q.** And the “ratio of LC3-II to LC3-I” value ([8]; FIG. 16)?
**A.** dose-dependent increase

**Q.** And the “number of autophagic events (LGG-1::GFP dots per focal field)” value [9]?
**A.** increases the number of autophagic events
